In patent US20220218671A1 (BOEHRINGER INGELHEIM VETMEDICA GMBH, priority 2019, published 2022):

Key:
[1] = test system: naturally occurring proteinuria; conditions: cited from earlier work
[2] = test system: client-owned dogs with persistent pathologic renal proteinuria due to CKD; assay: Prospective, block-randomized, double-blind clinical trial of telmisartan versus enalapril; UPC measurement (phases I-III); format: in vivo, dog; conditions: for Average of UPC change day 30 / Average of UPC change day 60 / Average of UPC change day 90: change from baseline; for Average of UPC change day 30: day 30, all dogs; for Average of UPC change day 60: day 60, all dogs; for Average of UPC change day 60 / Average of UPC change day 90: up-titration allowed; for Average of UPC change day 90: day 90, all dogs; for proportion of dogs that experienced 50% reduction in UPC at day 30: telmisartan 1 mg/kg PO q 24 h, enalapril 0.5 mg/kg PO q 12 h, 16/20 versus 5/17 dogs, P=0.003; for Average of UPC change in dogs with added drug at Day 90, day 120: the other drug additionally administered between day 90 and day 120; for Average of percent UPC change day 30 / Average of percent UPC change day 60 / Average of percent UPC change day 90 / Average of percent UPC change day 120: percent change from baseline; for Average of percent UPC change day 120: the other drug (telmisartan or enalapril) additionally administered between day 90 and day 120
From the text: Experimental Methods and Design. A prospective, block-randomized, double-blind clinical trial has been carried out. Fifty-four client-owned dogs with persistent pathologic renal proteinuria have been recruited over a 2-year period.
Animals. Azotemic and non-azotemic dogs (N=54) with hypertensive and non-hypertensive CKD have been recruited prospectively from patients presented to the hospital. Dogs included as cases will have confirmed persistent pathologic renal proteinuria due to CKD; in order to be classified as such, fulfillment of the criteria described below will be required.
Inclusion criteria. […] Abdominal ultrasound findings consistent with CKD (bilaterally small, irregular kidneys) and absence of renal neoplasia have also been documented.
Exclusion criteria. […] Dogs with suspected or confirmed hyper-adrenocorticism and diabetes mellitus have been included if their disease is considered well controlled with medical therapy.
Patient grouping for block randomization: Once included in the study and based on the presence/degree of azotemia, dogs have been grouped according to the International Renal Interest Society (IRIS) classification scheme for CKD. Those classified as IRIS stages 2-4 (serum creatinine ≥1.4 mg/dL with inappropriately dilute urine [USG<1.030]) have been considered azotemic (AZ), and those classified as IRIS stage 1 (creatinine <1.4 mg/dL) have been considered non-azotemic (non-AZ). Within each of these two groups, dogs will then be stratified according to IRIS recommendations for arterial pressure (AP) substaging. According to this scheme, dogs with persistent average indirect arterial systolic BP<150 mm Hg will be classified as AP0 (minimal risk for target organ damage). Those with persistent average indirect arterial systolic BP150 mm Hg have been classified as AP1-3 (at risk for target organ damage). Four groups will thus be identified:
Baseline. On inclusion (day 0), all owners have been required to read/sign a form consenting to their pets' participation in the study. The following baseline data have been collected for each case: full physical examination (performed by one of the study investigators), fundic examination, blood pressure measurement, serum chemistry panel, urinalysis, abdominal ultrasound, UPC and urine culture. The results of screening tests, if performed within 2 weeks of inclusion in the study, may be used as baseline information. Baseline UPC has been defined as the average of two measurements, taken 2 weeks apart, prior to enrollment.
ARB/ACEi therapy. […] Owners have been provided with appropriate contact numbers in the event of an emergency.
Antihypertensive/other therapy. For dogs that are classified as AP3 (SBP180 mmHg; 200 mmHg in sighthounds), a calcium channel blocker (CCB; amlodipine, 0.1 mg/kg PO q 24 hours) has been administered contemporaneously. […] All dogs have been started or maintained on a commercially available diet formulated to be low in phosphorus and protein, for at least 1 month prior to enrollment.
Monitoring: The monitoring protocol followed the recommendations of the IRIS Canine GN Study Group Standard Therapy Subgroup. All dogs have been rechecked on day 7, at which time physical examination, SBP, serum creatinine (sCr) and serum potassium (K) have been evaluated. An increase in sCr of >30% compared to baseline or identification of moderate/severe hyperkalemia (serum K>6.5 mmol/L) or systolic hypotension (SBP<120) has prompt the investigator unmasking and removal of the patient from the study. For dogs in which average SBP of approximately 180 mm Hg was reliably identified (i.e. dogs classified as AP3), amlodipine will be up-titrated to 0.1 mg/kg PO BID. Thereafter, dogs classified as AP3 have been rechecked at 7-day intervals to ensure efficacy of therapy with adjustment of antihypertensive therapy.

[3] = dogs without added drug at day 90

SMILES | subjects experiencing an increase in proteinuria despite therapy ([1]; 3/14 subjects) [%] | subjects with clinically significant (i.e., 50%) reduction in proteinuria ([1]; 9/14 subjects) [%] | Average of UPC change day 30 [2] | Average of UPC change day 60 [2] | Average of UPC change day 90 [2] | proportion of dogs that experienced 50% reduction in UPC at day 30 [2] [%] | Average of UPC change in dogs with added drug at Day 90, day 30 [2] | Average of UPC change in dogs with added drug at Day 90, day 60 [2] | Average of UPC change in dogs with added drug at Day 90, day 90 [2] | Average of UPC change in dogs with added drug at Day 90, day 120 ([2]; day 120) | Average of UPC change in dogs without added drug at Day 90, day 30 [2, 3] | Average of UPC change in dogs without added drug at Day 90, day 60 [2, 3] | Average of UPC change in dogs without added drug at Day 90, day 90 [2, 3] | Average of UPC change in dogs without added drug at Day 90, day 120 ([2]; dogs without added drug at day 90, day 120) | Average of percent UPC change day 30 [2] [%] | Average of percent UPC change day 60 [2] [%] | Average of percent UPC change day 90 [2] [%] | Average of percent UPC change day 120 ([2]; day 120)
CCOC(=O)[C@H](CCc1ccccc1)N[C@@H](C)C(=O)N1CCC[C@H]1C(=O)O [Enalapril, enalapril] | 22 | 64 | −1.075 | −1.260 | −1.194 | 29.4 | −0.30 | −0.79 | −1.05 | −2.97 | −0.71 | −1.02 | −0.68 | −0.92 | −27.34 | −37.56 | −30.57 | −75.14^1%
CCCc1nc2c(C)cc(-c3nc4ccccc4n3C)cc2n1Cc1ccc(-c2ccccc2C(=O)O)cc1 [Telmisartan, telmisartan] |  |  | −2,516 | −3.769 | −4.341 | 80 | −4.20 | −4.83 | −4.83 | −5.84 | −1.82 | −2.81 | −2.01 |  | −57.01 | −65.87 | −68.79 | −76.70^2%
